{
  "source": "ChEMBL document CHEMBL3044633",
  "about": "“Synthesis and Insecticidal Activity of 3, 5-Dimethylbenzoyl Moiety Modified Analogues of N-tert-Butyl-N-(4-ethylbenzoyl)-3, 5-dimethylbenzohydrazide” (2002)",
  "type_in_all_cases": "functional",
  "conditions_in_all_cases": "foliar, 120 h",
  "key": {"[1]": {"tested_on": "Spodoptera litura", "assay": "Insecticidal activity against the Spodoptera litura larvae in compound treated cabbage leaves assessed as mortality at 12.5 ppm measured after 5 days by leaf dipping method"}, "[2]": {"tested_on": "Spodoptera litura", "assay": "Insecticidal activity against the Spodoptera litura larvae in compound treated cabbage leaves assessed as mortality at 50 ppm measured after 5 days by leaf dipping method"}, "[3]": {"tested_on": "Spodoptera litura", "assay": "Insecticidal activity against the Spodoptera litura larvae in compound treated cabbage leaves assessed as mortality at 200 ppm measured after 5 days by leaf dipping method"}, "[4]": {"tested_on": "Spodoptera litura", "assay": "Insecticidal activity against the Spodoptera litura larvae in compound treated cabbage leaves assessed as mortality at 3.1 ppm measured after 5 days by leaf dipping method"}},
  "data": [
    {"smiles": "CCc1ccc(C(=O)NN(C(=O)c2cc(C)cc(C(F)F)c2)C(C)(C)C)cc1", "values": [
      {"measurement": "mortality at 12.5 ppm", "setting": "[1]", "result": 8, "unit": "%"},
      {"measurement": "mortality at 50 ppm", "setting": "[2]", "result": 10, "unit": "%"},
      {"measurement": "mortality at 200 ppm", "setting": "[3]", "result": 10, "unit": "%"}
    ]},
    {"smiles": "CCc1ccc(C(=O)NN(C(=O)c2cc(C)cc(CO[Si](C)(C)C(C)(C)C)c2)C(C)(C)C)cc1", "values": [
      {"measurement": "mortality at 200 ppm", "setting": "[3]", "result": 0, "unit": "%"}
    ]},
    {"smiles": "CCc1ccc(C(=O)NN(C(=O)c2ccc3ncoc3c2)C(C)(C)C)cc1", "values": [
      {"measurement": "mortality at 200 ppm", "setting": "[3]", "result": 1, "unit": "%"}
    ]},
    {"smiles": "CCc1ccc(C(=O)NN(C(=O)c2cc(C)cc(C)c2)C(C)(C)C)cc1", "note": "[TEBUFENOZIDE]", "values": [
      {"measurement": "mortality at 3.1 ppm", "setting": "[4]", "result": 3, "unit": "%"},
      {"measurement": "mortality at 12.5 ppm", "setting": "[1]", "result": 10, "unit": "%"},
      {"measurement": "mortality at 50 ppm", "setting": "[2]", "result": 10, "unit": "%"},
      {"measurement": "mortality at 200 ppm", "setting": "[3]", "result": 10, "unit": "%"}
    ]},
    {"smiles": "CCc1ccc(C(=O)NN(C(=O)c2cc(C)cc(COC)c2)C(C)(C)C)cc1", "values": [
      {"measurement": "mortality at 50 ppm", "setting": "[2]", "result": 5, "unit": "%"},
      {"measurement": "mortality at 200 ppm", "setting": "[3]", "result": 9, "unit": "%"}
    ]},
    {"smiles": "CCc1ccc(C(=O)NN(C(=O)c2ccc3ocnc3c2)C(C)(C)C)cc1", "values": [
      {"measurement": "mortality at 200 ppm", "setting": "[3]", "result": 5, "unit": "%"}
    ]},
    {"smiles": "CCc1ccc(C(=O)NN(C(=O)c2cc(C)cc(CF)c2)C(C)(C)C)cc1", "values": [
      {"measurement": "mortality at 12.5 ppm", "setting": "[1]", "result": 5, "unit": "%"},
      {"measurement": "mortality at 50 ppm", "setting": "[2]", "result": 10, "unit": "%"},
      {"measurement": "mortality at 200 ppm", "setting": "[3]", "result": 10, "unit": "%"}
    ]},
    {"smiles": "CCCCOCc1cc(C)cc(C(=O)N(NC(=O)c2ccc(CC)cc2)C(C)(C)C)c1", "values": [
      {"measurement": "mortality at 200 ppm", "setting": "[3]", "result": 0, "unit": "%"}
    ]},
    {"smiles": "CCc1ccc(C(=O)NN(C(=O)c2cc(C)cc(CCl)c2)C(C)(C)C)cc1", "values": [
      {"measurement": "mortality at 50 ppm", "setting": "[2]", "result": 1, "unit": "%"},
      {"measurement": "mortality at 200 ppm", "setting": "[3]", "result": 7, "unit": "%"}
    ]},
    {"smiles": "CCc1ccc(C(=O)NNC(=O)C2CC(C)CC(C)C2)cc1", "note": "(centres undefined)", "values": [
      {"measurement": "mortality at 50 ppm", "setting": "[2]", "result": 0, "unit": "%"},
      {"measurement": "mortality at 200 ppm", "setting": "[3]", "result": 1, "unit": "%"}
    ]},
    {"smiles": "C=Cc1cc(C)cc(C(=O)N(NC(=O)c2ccc(CC)cc2)C(C)(C)C)c1", "values": [
      {"measurement": "mortality at 12.5 ppm", "setting": "[1]", "result": 1, "unit": "%"},
      {"measurement": "mortality at 50 ppm", "setting": "[2]", "result": 7, "unit": "%"},
      {"measurement": "mortality at 200 ppm", "setting": "[3]", "result": 10, "unit": "%"}
    ]},
    {"smiles": "CCc1ccc(C(=O)NN(C(=O)C2C=C(C)CC(C)=C2)C(C)(C)C)cc1", "values": [
      {"measurement": "mortality at 12.5 ppm", "setting": "[1]", "result": 4, "unit": "%"},
      {"measurement": "mortality at 50 ppm", "setting": "[2]", "result": 10, "unit": "%"},
      {"measurement": "mortality at 200 ppm", "setting": "[3]", "result": 10, "unit": "%"}
    ]},
    {"smiles": "CCc1ccc(C(=O)NN(C(=O)c2cc(C)cc(C=O)c2)C(C)(C)C)cc1", "values": [
      {"measurement": "mortality at 200 ppm", "setting": "[3]", "result": 0, "unit": "%"}
    ]},
    {"smiles": "CCc1ccc(C(=O)NN(C(=O)c2cc(C)cc(CO)c2)C(C)(C)C)cc1", "values": [
      {"measurement": "mortality at 200 ppm", "setting": "[3]", "result": 0, "unit": "%"}
    ]},
    {"smiles": "CCc1ccc(C(=O)NN(C(=O)c2ccc3c(c2)OCCO3)C(C)(C)C)cc1", "values": [
      {"measurement": "mortality at 200 ppm", "setting": "[3]", "result": 0, "unit": "%"}
    ]}
  ]
}
